Measurements published in US7902197B2, “Pyrrolopyrazine kinase inhibitors” (Roche Palo Alto LLC, priority 2008, dated 2011).

Experiments:
[1] = target: JAK2: Recombinant human kinase domain (Homo sapiens, UniProt O60674); test: Determination of IC50 of Janus Kinase (JAK) inhibition, radioactive end-point 33P-ATP assay, JAK2; type: biochemical; conditions: 1 nM JAK2, ATP 1.5 uM, peptide 50 uM, 20 minutes; read-out: IC50 h-jak2-sf21-c
From the text: (§1) Determination of IC50 of Janus Kinase (JAK) Inhibition: […]

[2] = target: JAK3: Recombinant human kinase domain (Homo sapiens, UniProt P52333); test: Determination of IC50 of Janus Kinase (JAK) inhibition, radioactive end-point 33P-ATP assay, JAK3; type: biochemical; conditions: 0.5 nM or 0.2 nM JAK3, ATP 1.5 uM, peptide 50 uM, 20 minutes; read-out: IC50 h-jak3-sf21-c
Sequence of JAK3: Recombinant human kinase domain (P52333 822-1111 limits assumed): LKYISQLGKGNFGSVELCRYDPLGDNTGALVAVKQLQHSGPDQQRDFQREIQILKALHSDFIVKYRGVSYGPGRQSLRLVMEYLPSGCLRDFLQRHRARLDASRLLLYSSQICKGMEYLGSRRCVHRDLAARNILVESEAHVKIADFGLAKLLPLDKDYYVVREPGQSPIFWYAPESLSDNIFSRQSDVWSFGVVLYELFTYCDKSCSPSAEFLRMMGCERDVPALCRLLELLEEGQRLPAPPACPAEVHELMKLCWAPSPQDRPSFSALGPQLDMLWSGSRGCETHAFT
From the text: as §1

Sequence of JAK2: Recombinant human kinase domain (O60674 849-1124 limits assumed): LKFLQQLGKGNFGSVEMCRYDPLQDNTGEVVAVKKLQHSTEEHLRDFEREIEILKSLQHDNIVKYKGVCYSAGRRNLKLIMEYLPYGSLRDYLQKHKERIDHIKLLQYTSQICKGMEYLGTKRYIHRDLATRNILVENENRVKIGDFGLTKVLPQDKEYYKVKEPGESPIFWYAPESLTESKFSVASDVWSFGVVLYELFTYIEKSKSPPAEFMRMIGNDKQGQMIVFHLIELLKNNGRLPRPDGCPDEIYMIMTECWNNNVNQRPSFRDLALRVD

SMILES	IC50 [1] [nM]	IC50 [2] [nM]	melting point [°C]
CC(C)NC(=O)c1c[nH]c2ncc(N(C)C3CCCC3)nc12 [Compound I-1, 2-(Cyclopentyl-methyl-amino)-5H-pyrrolo[2,3-b]pyrazine-7-carboxylic acid isopropylamide]	129	59.2	277 to 278
CC(C)(C)C(=O)c1c[nH]c2ncc(C(=O)NC3CCCC3)nc12 [Compound I-15, 7-(2,2-Dimethyl-propionyl)-5H-pyrrolo[2,3-b]pyrazine-2-carboxylic acid cyclopentylamide]	–	–	237.9 to 241.5
CN1CCN(c2ccc(Nc3cnc4[nH]cc(C(=O)C(C)(C)C)c4n3)cc2)CC1 [Compound I-34, 2,2-Dimethyl-1-{2-[4-(4-methyl-piperazin-1-yl)-phenylamino]-5H-pyrrolo[2,3-b]pyrazin-7-yl}-propan-1-one]	–	471	–

Next, values leading:

IC50 [1] [nM]	IC50 [2] [nM]	melting point [°C]	SMILES
–	–	188 to 198	CC(C)(C)C(=O)c1cnc2[nH]cc(C(=O)C(C)(C)C)c2n1 [Compound I-2, 1-[7-(2,2-Dimethyl-propionyl)-5H-pyrrolo[2,3-b]pyrazin-2-yl]-2,2-dimethyl-propan-1-one]
–	498	–	CN1CCN(c2cccc(Nc3cnc4[nH]cc(C(=O)C(C)(C)C)c4n3)c2)CC1 [Compound I-35, 2,2-Dimethyl-1-{2-[3-(4-methyl-piperazin-1-yl)-phenylamino]-5H-pyrrolo[2,3-b]pyrazin-7-yl}-propan-1-one]
